{"source": "patent US20100239635A1", "about": "“DRUG DELIVERY MEDICAL DEVICE” (MICELL TECHNOLOGIES, INC., priority 2009, published 2010)", "key": {"bladder cancer": {"test_system": "bladder cancer", "details": "optimized schedule: 40 mg/20 cc (compared with 20 mg/20 cc), overnight dehydration, complete bladder emptying, alkalinization with sodium bicarbonate; cited from earlier work"}, "[1]": {"details": "cited from earlier work"}, "[2]": {"parameters": "dose or concentration left out as unconfirmed", "details": "estradiol release, as its 3-acetate ester; cited from earlier work"}, "[3]": {"experiment": "In vivo study of coating and drug transfer from a stent, porcine coronary artery model", "parameters": "species or system Yucatan pig", "details": "for amount of drug detected in the arterial tissue: stent as in Example 1", "method": "Another sample of the coated stent was prepared for in vivo evaluation in a porcine coronary artery model using the Yucatan pig. Subjects were initially given 650 mg acetylsalicylic acid and 300 mg Plavix. Maintenance doses of 81 mg acetylsalicylic acid and 75 mg Plavix were administered. The target ACT (activated clotting time) for the procedure was about 250 seconds. Stent oversizing in relation to the artery was about 10-20%. The preparation of the sirolimus-coated stent was the same as described in Example 1 and used for the in vitro deployment into tubing, except that the device was sterilized using ETO prior to implantation into the animal.\nThe bulk concentration of drug was measured in the arterial tissue surrounding the implanted stent at 1, 3, 7, 14, and 28 days after implant, and provided a quantitative measure of the high efficiency of transfer of drug into the therapeutic site using devices and methods of the invention. The amount of drug that was detected in the arterial tissue was as follows: 1 day after implant, ˜6 μg; 3 days after implant, ˜16 μg; 7 days after implant, ˜30 μg; 14 days after implant, ˜30 μg; 28 days after implant, ˜13 μg. Peak tissue concentration of sirolimus of ˜30 μg at 14 days after implant was representative of approximately ⅙^th of the total drug that had been loaded on the stent. Note that some drug likely metabolized or diffused out of the arterial tissue into other areas of the body."}, "[4]": {"details": "given intravesically in doses as high as 1 billion units; cited from earlier work"}}, "data": [{"molecule": "CO[C@@]12[C@H](COC(N)=O)C3=C(C(=O)C(C)=C(N)C3=O)N1C[C@@H]1N[C@@H]12", "note": "[Mitomycin C, mitomycin C]", "values": [{"measurement": "recurrence", "setting": "bladder cancer", "result": "nearly cut in half"}, {"measurement": "stability in acid urine", "setting": "[1]", "result": "inactivated"}]}, {"molecule": "C[C@]12CC[C@@H]3c4ccc(O)cc4CC[C@H]3[C@@H]1CC[C@@H]2O", "note": "[estradiol]", "values": [{"measurement": "circulating plasma concentration of the drug", "setting": "[2]", "result": 300, "unit": "pmol/L"}]}, {"molecule": "CO[C@H]1C[C@@H]2CC[C@@H](C)[C@@](O)(O2)C(=O)C(=O)N2CCCC[C@H]2C(=O)O[C@H]([C@H](C)C[C@@H]2CC[C@@H](O)[C@H](OC)C2)CC(=O)[C@H](C)/C=C(\\C)[C@@H](O)[C@@H](OC)C(=O)[C@H](C)C[C@H](C)/C=C/C=C/C=C/1C", "note": "[sirolimus]", "values": [{"measurement": "amount of drug detected in the arterial tissue", "setting": "[3]; 1 day after implant", "result": "~6", "unit": "µg"}, {"measurement": "amount of drug detected in the arterial tissue", "setting": "[3]; 3 days after implant", "result": "~16", "unit": "µg"}, {"measurement": "amount of drug detected in the arterial tissue", "setting": "[3]; 7 days after implant", "result": "~30", "unit": "µg"}, {"measurement": "amount of drug detected in the arterial tissue", "setting": "[3]; 14 days after implant", "result": "~30", "unit": "µg"}, {"measurement": "amount of drug detected in the arterial tissue", "setting": "[3]; 28 days after implant", "result": "~13", "unit": "µg"}, {"measurement": "Peak tissue concentration of sirolimus", "setting": "[3]; at 14 days after implant", "result": "~30", "unit": "µg"}, {"measurement": "peak tissue amount as fraction of the total drug loaded on the stent", "setting": "[3]; at 14 days after implant", "result": "approximately ⅙"}]}, {"molecule": "Interferon Alpha 2b", "values": [{"measurement": "dose-limiting side effects", "setting": "[4]", "result": "without dose-limiting side effects"}]}]}
